Laboratory results reported in US5770575A, “Nipecotic acid derivatives as antithrombotic compounds” (Ortho Pharmaceutical Corporation, priority 1995, dated 1998).

Key:
GPIIb/IIIa = target: T1, GPIIb/IIIa (Homo sapiens, UniProt P05106+P08514); assay: In vitro solid phase purified glycoprotein IIb/IIIa binding assay (biotinylated fibrinogen); details: for IC50: Table I; for inhibition at 50 µM: read-out: Binding (column Binding IC50), % @ 50 μM
T1 sequence (P08514 32-887 limits assumed): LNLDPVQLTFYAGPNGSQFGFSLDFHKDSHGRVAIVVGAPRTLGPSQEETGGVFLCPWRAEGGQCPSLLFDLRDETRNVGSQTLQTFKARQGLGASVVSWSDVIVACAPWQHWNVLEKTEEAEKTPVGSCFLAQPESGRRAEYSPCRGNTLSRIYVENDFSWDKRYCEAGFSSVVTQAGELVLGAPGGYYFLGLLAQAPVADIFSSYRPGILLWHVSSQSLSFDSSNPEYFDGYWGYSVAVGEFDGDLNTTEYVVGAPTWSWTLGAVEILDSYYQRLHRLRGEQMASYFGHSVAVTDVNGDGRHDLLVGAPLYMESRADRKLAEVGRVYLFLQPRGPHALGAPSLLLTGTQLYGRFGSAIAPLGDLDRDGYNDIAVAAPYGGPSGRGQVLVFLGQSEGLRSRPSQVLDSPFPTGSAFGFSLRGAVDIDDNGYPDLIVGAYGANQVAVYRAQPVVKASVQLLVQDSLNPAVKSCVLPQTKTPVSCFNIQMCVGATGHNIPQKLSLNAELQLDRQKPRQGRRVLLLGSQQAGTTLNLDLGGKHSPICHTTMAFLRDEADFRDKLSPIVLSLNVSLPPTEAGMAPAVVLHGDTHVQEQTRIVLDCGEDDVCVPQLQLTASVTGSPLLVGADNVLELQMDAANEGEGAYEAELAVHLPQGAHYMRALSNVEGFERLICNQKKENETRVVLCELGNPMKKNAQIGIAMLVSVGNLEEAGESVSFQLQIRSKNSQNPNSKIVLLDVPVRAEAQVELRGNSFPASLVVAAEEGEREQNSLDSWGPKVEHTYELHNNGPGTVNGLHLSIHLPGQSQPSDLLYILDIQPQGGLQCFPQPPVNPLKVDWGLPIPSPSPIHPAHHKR
T1 sequence (P05106 27-788): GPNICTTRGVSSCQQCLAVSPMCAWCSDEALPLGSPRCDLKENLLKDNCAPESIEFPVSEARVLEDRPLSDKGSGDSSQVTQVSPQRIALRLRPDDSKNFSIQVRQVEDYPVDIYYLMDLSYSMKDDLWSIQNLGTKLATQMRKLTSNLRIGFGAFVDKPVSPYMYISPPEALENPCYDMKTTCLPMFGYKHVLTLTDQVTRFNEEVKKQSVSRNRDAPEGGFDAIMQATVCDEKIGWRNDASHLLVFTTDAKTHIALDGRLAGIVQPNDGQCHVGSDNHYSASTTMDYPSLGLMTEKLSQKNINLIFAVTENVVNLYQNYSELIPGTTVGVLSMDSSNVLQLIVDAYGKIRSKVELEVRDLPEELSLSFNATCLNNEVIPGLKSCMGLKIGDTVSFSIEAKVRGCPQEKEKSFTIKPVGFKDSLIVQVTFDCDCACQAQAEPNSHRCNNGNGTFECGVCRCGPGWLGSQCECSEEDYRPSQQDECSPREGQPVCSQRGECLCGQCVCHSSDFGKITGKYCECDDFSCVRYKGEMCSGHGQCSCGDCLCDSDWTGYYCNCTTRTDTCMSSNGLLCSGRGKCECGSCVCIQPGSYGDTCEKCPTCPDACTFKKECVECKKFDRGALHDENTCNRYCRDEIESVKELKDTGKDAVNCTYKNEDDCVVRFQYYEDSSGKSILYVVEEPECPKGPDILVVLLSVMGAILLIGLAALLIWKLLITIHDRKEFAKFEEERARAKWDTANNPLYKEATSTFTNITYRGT
Source text: The compounds of the present invention interrupt binding of fibrinogen to platelet glycoprotein IIb/IIIa (GPIIb/IIIa) and thereby inhibit platelet aggregation. […] Because the final, common pathway in normal platelet aggregation is the binding of fibrinogen to activated, exposed GPIIb/IIIa, inhibition of this binding represents a plausible antithrombotic approach. The receptor is activated by stimuli such as ADP, collagen, and thrombin, exposing binding domains to two different peptide regions of fibrinogen: α-chain Arg-Gly-Asp (RGD) and γ-chain 400-411.
IN VITRO SOLID PHASE PURIFIED GLYCOPROTEIN IIB/IIIA BINDING ASSAY.
The plate is covered and incubated overnight at 4° C. The GPIIb/IIa solution is discarded and 150 μl of 5% BSA is added and incubated at RT for 1-3 h. The plate is washed extensively with modified Tyrodes buffer. Biotinylated fibrinogen (25 μl/well) at 2× final concentration is added to the wells that contain the test compounds (25 μl/well) at 2× final concentration. The plate is covered and incubated at RT for 2-4 h. Twenty minutes prior to incubation completion, one drop of Reagent A (Vecta Stain ABC Horse Radish Peroxidase kit, Vector Laboratories, Inc.) and one drop Reagent B are added with mixing to 5 mL modified Tyrodes buffer mix and let stand. The ligand solution is discarded and the plate washed (5×200 μl/well) with modified Tyrodes buffer. Vecta Stain HRP-Biotin-Avidin reagent (50 μl/well, as prepared above) is added and incubated at RT for 15 min. The Vecta Stain solution is discarded and the wells washed (5×200 μl/well) with modified Tyrodes buffer. […] The absorbance is read at 490 nm.

gel-filtered platelets = assay: In vitro inhibition of thrombin-induced gel-filtered platelet aggregation assay; format: cell-based; details: *Indicates IC50, read-out: Pl. Aggr. IC50
Method: IN VITRO INHIBITION OF THROMBIN-INDUCED GEL-FILTERED PLATELET AGGREGATION ASSAY.
The percentage of platelet aggregation is calculated as an increase in light transmission of compound treated platelet concentrate vs. control treated platelet concentrate. Blood is obtained from drug free, normal donors into tubes containing 0.13M sodium citrate. Platelet rich plasma (PRP) is collected by centrifugation of whole blood at 200×g for 10 min at 25° C. The PRP (5 mL) is gel filtered through Sepharose 2B (bed volume 50 mL), and the platelet count is adjusted to 2×10^7platelets per sample. The following constituents are added to a siliconized cuvette: concentrated platelet filtrate and Tyrode's buffer (0.1 4M NaCl, 0.0027M KCl, 0.01 2M NaHCO3, 0.76 mM Na2 HPO4, 0.0055M glucose, 2 mg/mL BSA and 5.0 mM HEPES @ pH 7.4) in an amount equal to 350 μl, 50 μl of 20 mM calcium and 50 μl of the test compound. Aggregation is monitored in a BIODATA aggregometerforthe 3 min following the addition of agonist (thrombin 50 μl of 1 unit/mL).

platelet aggregation = assay: In vivo dog study: gamma thrombin- and collagen-induced platelet aggregation; parameters: species or system mongrel dogs; details: mean ± SEM
Method: (§1) Adult mongrel dogs of either sex 9-13 kg) were anesthetized with pentobarbital sodium (35 mg/kg, i.v.) and ventilated with room air via an endotracheal tube (12 strokes/min, 25 ml/kg). For arterial pressure determination, the left carotid artery was cannulated with a saline-filledpolyethylene catheter (PE-200) and connected to a Statham pressure transducer (P231D, Oxnard, Calif.). Mean arterial diastolic blood pressure. Heart rate was monitored using a cardiotachometer (Biotach, Gould
(§2) Electronics, Cleveland, Ohio) triggered from a lead 11 electrocardiogram generated by limb leads. A jugular vein was cannulated (PE-200) for drug administration. The left femoral artery and the left femoral vein were cannulated with silicon treated (Sigmacote, Sigma Chemical Co., St. Louis, Mo.), saline filled polyethylene tubing (PE-200) and connected with a 5 cm section of silicon treated tubing (PE-240) to form an extracorporeal arteriovenous shunt (A-V). Shunt patency was monitored using a Doppler flow system (model VF-1, Crystal Biotech Inc., Hopkinton, Mass.) and proximal to the locus of the shunt. All parameters were monitored continuously on a polygraph recorder (Gould TA-4000, Oxnard Calif.) at a paper speed of 10 mm/min.
(§3) On completion of a 15 min post surgical stabilization period, an occlusive thrombus was formed by the introduction of a thrombogenic surface (O braided silk thread, 5 cm in length, Ethicon Inc., Somerville, N.J.) into the shunt. Four consecutive 15 min shunt periods were employed with the first consisting of a vehicle infusion followed by increasing concentrations of Compound 16, SC-47643, saline with DMF or saline with citric acid administered as a bolus followed by an infusion beginning 5 min. before insertion of the thrombogenic surface and continued for an additional 15 min. AT the end of each 15 min shunt period the silk was carefully removed and weighed. A fifth shunt immediately following the total cumulative treatment dose was used to assess patency duration as indicated by time to total occlusion. Thrombus weight was calculated by subtracting the weight of the silk prior to placement from the total weight of the silk on removal from the shunt. Arterial blood was withdrawn prior to the first shunt and after each shunt period for determination of whole blood collagen-induced platelet aggregation, thrombin-induced platelet degranulation (platelet ATP release), prothrombin time and platelet count. Template bleeding time was performed beginning 10 min. into each shunt period.
Whole blood platelet aggregation and ATP release were measured using a lumi-aggregation and ATP release were measured using a lumi-aggregometer (Chrono-log, Havertown, Pa.) by recording the change in impedance (platelet aggregation) and light transmission (ATP-release) through a stirred (1000 rpm) suspension of whole blood maintained at 37 C.
(§4) Compound 16;1+0.03, 3+0.1 and 5+0.3 mg/kg, i.v. (bolus)+mg/kg/hr,i.v. (infusion) was solubilized in saline+DMF (5%) and serially diluted to achieve appropriate concentrations expressed as parent compound.
(§5) All values are expressed as the mean and standard error of the mean. Statistical significance of the change was assessed based on change from baseline suing analysis of variance and Student's t-test. Differences were considered significant when P<0.05.

occlusive thrombus = assay: In vivo dog study: thrombus formation in extracorporeal arteriovenous shunt; parameters: species or system mongrel dogs; details: for Thrombus Weight: mean ± SEM
Method: Compound 16 was tested in the following in vivo dog model to determine its therapeutic efficacy
as §1, §2, §3, §4, §5

CC(C)(C)OC(=O)N[C@@H](CCCCNC(=O)OCc1ccccc1)C(=O)N1CCCC(C(=O)NCCC(=O)OCc2ccccc2)C1 (stereo partly drawn) [Compound 1, Nα-Boc-L-Lys(Cbz)-Nip-Ala-OBn]
IC50 (GPIIb/IIIa): 20100 nM

CC(C)(C)OC(=O)N[C@@H](CCCCN)C(=O)N1CCCC(C(=O)NCCC(=O)O)C1 (stereo partly drawn) [Compound 2, Nα-Boc-L-Lys-Nip-γ-Ala--OH]
IC50 (GPIIb/IIIa): 740 nM

CC(C)(C)OC(=O)N[C@H](CCCCN)C(=O)N1CCCC(C(=O)NCCC(=O)O)C1 (stereo partly drawn) [Compound 3, Nα-Boc-D-Lys-Nip-γ-Ala--OH]
IC50 (GPIIb/IIIa): 21 nM | IC50 (gel-filtered platelets): 600 nM

NCCCC[C@H](N)C(=O)N1CCCC(C(=O)NCCC(=O)O)C1 (stereo partly drawn) [Compound 4, H-L-Lys-Nip-γ-Ala-OH]
IC50 (GPIIb/IIIa): 2600 nM

NCCCCCC(=O)N1CCCC(C(=O)NCCC(=O)O)C1 (stereo not drawn) [Compound 5, N-(Nε- nocaroyl)-Nip-β-Ala-OH]
IC50 (GPIIb/IIIa): 13 nM | IC50 (gel-filtered platelets): 1600 nM

CC(=O)N[C@@H](CCCCN)C(=O)N1CCCC(C(=O)NCC(=O)O)C1 (stereo partly drawn) [Compound 6, Nα-Ac-L-Lys-Nip-Gly-OH]
inhibition at 50 µM (GPIIb/IIIa): 24%

CC(=O)N[C@@H](CCCCN)C(=O)N1CCCC(C(=O)NCCC(=O)O)C1 (stereo partly drawn) [Compound 7, Nα-Ac-L-Lys-Nip-β-Ala-OH]
IC50 (GPIIb/IIIa): 74 nM

CC(C)(C)OC(=O)N[C@@H](CCCCN)C(=O)N1CCCC(C(=O)NCCCC(=O)O)C1 (stereo partly drawn) [Compound 9, Nα-Boc-L-Lys-Nip-γ-aminobutyric acid]
inhibition at 50 µM (GPIIb/IIIa): 59%

NCCCC[C@@H](N)C(=O)N1CCCC(C(=O)NCCC(=O)O)C1 (stereo partly drawn) [Compound 10, H-D-Lys-Nip-β-Ala-OH]
IC50 (GPIIb/IIIa): 760 nM

CC(=O)N[C@H](CCCCN)C(=O)N1CCCC(C(=O)NCCC(=O)O)C1 (stereo partly drawn) [Compound 13, Nα-Ac-D s-Nip-β-Ala-OH]
IC50 (GPIIb/IIIa): 340 nM

CC(C)NCCCC[C@H](NC(=O)OC(C)(C)C)C(=O)N1CCCC(C(=O)NCCC(=O)O)C1 (stereo partly drawn) [Compound 15, Nα-Boc-L-Lys(i-Pr)-Nip-β-Ala-OH]
inhibition at 5 µM (GPIIb/IIIa; read-out: Binding (column Binding IC50), % @ 5 μM): 20%

CC(C)(C)OC(=O)N[C@H](CCCCN)C(=O)N1CCC[C@@H](C(=O)NCCC(=O)O)C1 [Compound 16, Nα-Boc-D-Lys-R-(-)-Nip-β-Ala-OH]
Collagen-Induced Plat Agg (% inhib) (platelet aggregation; 2-Dose 1 (1+0.03)): 14 ± 3 % inhib | G-Thrombin-Induced Plat Agg (% inhib) (platelet aggregation; 2-Dose 1 (1+0.03)): 8 ± 5 % inhib | Collagen-Induced Plat Agg (% inhib) (platelet aggregation; 3-Dose 2 (3+0.1), *P < 0.05): 99 ± 1 % inhib | G-Thrombin-Induced Plat Agg (% inhib) (platelet aggregation; 3-Dose 2 (3+0.1), *P < 0.05): 34 ± 8 % inhib | Collagen-Induced Plat Agg (% inhib) (platelet aggregation; 4-Dose 3 (5+0.3), *P < 0.05): 100 ± 0 % inhib | G-Thrombin-Induced Plat Agg (% inhib) (platelet aggregation; 4-Dose 3 (5+0.3), *P < 0.05): 72 ± 8 % inhib | G-Thrombin-Induced Plat Agg (% inhib) (platelet aggregation; 30 min post): 21 ± 8 % inhib | Collagen-Induced Plat Agg (% inhib) (platelet aggregation; 30 min post, *P < 0.05): 82 ± 13 % inhib | G-Thrombin-Induced Plat Agg (% inhib) (platelet aggregation; 60 min post): 11 ± 5 % inhib | Collagen-Induced Plat Agg (% inhib) (platelet aggregation; 60 min post, *P < 0.05): 57 ± 14 % inhib | Incidence of occlusive thrombus formation (animals per group) (occlusive thrombus; Period 2, Dose 1 (1+0.03 mg/kg iv bolus + mg/kg/hr infusion)): 2/4 | Incidence of occlusive thrombus formation (animals per group) (occlusive thrombus; Period 3, Dose 2 (3+0.1)): 1/4 | Incidence of occlusive thrombus formation (animals per group) (occlusive thrombus; Period 4, Dose 3 (5+0.3)): 0/4 | Incidence of occlusive thrombus formation (animals per group) (occlusive thrombus; Post Treatment, monitored for 60 min): 3/4 | Thrombus Weight (occlusive thrombus; Shunt 2 - Dose 1 (1+0.03)): 52 ± 3 mg | Thrombus Weight (occlusive thrombus; Shunt 3 - Dose 2 (3+0.1), *P < 0.05): 27 ± 1 mg | Thrombus Weight (occlusive thrombus; Shunt 4 - Dose 3 (5+0.3), *P < 0.05): 19 ± 2 mg
